Experiments:
Cas-1 in THP-1 cells = test: Confocal fluorescence imaging of Cas-1 in THP-1 cells; type: cell-based; conditions: for intracellular fluorescence intensity, ATP stimulation / intracellular fluorescence intensity, Nig stimulation: LPS 1 μg/mL 4 h, probe 5 μM 1 h; for intracellular fluorescence intensity, ATP stimulation: then ATP 2 mM 0, 1, 2 h; for intracellular fluorescence intensity, Nig stimulation: then Nig 10 μM 0, 1, 2 h
Description: To assess the capability of FPy1 and YPy1 to monitor endogenous Cas-1, the classic NLRP3 inflammasome-mediated Cas-1 activation model was established in THP-1 cells. THP-1 cells were initially stimulated with LPS (1 μg mL^−1) for 4 h to prime the production of NLRP3 inflammasome-associated proteins. Subsequently, the cells were stimulated with Nigericin (Nig, 10 μM) or ATP (2 mM) for various durations to induce the activation of Cas-1 and the pyroptosis-related pathway. The THP-1 cells were further stained with FPy1 or Ypy1 (5 μM) for 1 h and imaged (Fig. 3a). […] Western blot (WB) analysis confirmed that, regardless of whether Nig or ATP was used as the stimulant, the level of activated Cas-1 was consistent with the fluorescence imaging results (Fig. S8a–d). […] Therefore, FPy1 may be a more suitable candidate for monitoring low caspase-1 levels in subsequent imaging studies. […] To investigate the distribution of FPy1 within cells, THP-1 cells were co-stained with FPy1 and commercially available organelle-tracking dyes, including Mito-Tracker Green (mitochondria), Golgi-Tracker Green (Golgi apparatus), Lyso-Tracker Green (lysosomes) and ER-Tracker Green (endoplasmic reticulum). All dyes were imaged in the green fluorescence channel to avoid overlap with the red emission of FPy1 (Fig. 3f–i). […] The corresponding Pearson's correlation coefficients for mitochondria, Golgi apparatus, lysosomes, and endoplasmic reticulum were 0.4954, 0.4320, 0.5682, and 0.4448, respectively. […] To further confirm the specificity of FPy1 for Cas-1 imaging in living cells, THP-1 cells with Cas-1 knockdown via siRNA were constructed. […]
Intracellular imaging with FPy1 in THP-1 cells
THP-1 cells were seeded in dishes and cultured overnight. After stimulation with LPS (1 μg/mL in RPMI 1640 medium) for 4 hours, the cells were further treated with Nig (10 μM) or ATP (2 mM) for 0, 1, 2 hours. The medium was then replaced with fresh medium with FPy1 (5 μM), and cells were incubated at 37 °C for 1 hour before being washed twice […]
with PBS. […]
After washing, the THP-1 cells were separately incubated with commercially available dyes targeting mitochondria (Mito-Tracker Green), lysosomes (Lyso-Tracker Green), endoplasmic reticulum (ER-Tracker Green), and Golgi apparatus (Golgi-Tracker Green) for 30 minutes. […]
Nucleus pulposus spheroid cultivation […]
Intracellular imaging in nucleus pulposus cells and 3D cell spheroids
The primary nucleus pulposus cells or 3D cell spheroids were seeded in dishes and cultured overnight. […]

caspase-3 = test: Selectivity of probes: caspase-3; type: biochemical, human; conditions: caspase-3 1 μg/mL, 37 °C, 2 h, λex 510 nm, λem 585 nm
Text: The resin used for SPPS was purchased from GL Biochem (Shanghai, China). Lipopolysaccharide (LPS, L2630), Nigericin and ATP (11140965001) were purchased from Merck (Shanghai, China) and Invitrogen (Shanghai, China), respectively. Cell culture plates were sourced from Wuxi NEST Biotechnology. Recombinant human caspase-1, caspase-3, caspase-4, and caspase-8 were obtained from Abcam and MCE (Shanghai, China). Anti-cleaved caspase-1 antibody, anti-GAPDH antibody, and goat anti-Rabbit/anti-mouse lgG/HRP were purchased from CST (USA) and Beyotime […]
(Shanghai, China). […]
Medical College (ethical approval number ZJCLA-IACUC-20011003). […]
To investigate the sensitivity of the probes for caspase-1, varying concentration of caspase-1 (0, 0.2, 0.4, 0.6, 0.8, 1.0, 1.25, 1.5, 1.75, 2, 2.5, 3 U/mL) were incubated with FPy1 (5 μM), YPy1 (5 μM) and WPy1 (5 μM) respectively in caspase-1 assay buffer (50 mM HEPES, 50 mM NaCl, 0.1 % chaps, 5 % glycerol, 10 mM DTT, 10 mM EDTA) at 37 °C for 2 hours. Fluorescence spectra were recorded using Hitachi F-2700 spectrophotometer with an excitation at 510 nm (Photomultiplier voltage 700 V; Slit widths ex: 10 nm and em =5.0 nm). […] The limit of detection (LoD) was calculated from 3σ/k, in which σ represents the standard deviation of 15 blank measurements. […]
10 nm and em =5.0 nm). The fluorescence intensity of FPy1, YPy1 and WPy1 at 585 nm were plotted separately against […]

## –FLTDG– [FPy1, RhoB donor, hNR quencher]
Cas-1 in THP-1 cells; 2 h of Nig or ATP stimulation, probe 5 μM
  fluorescence increase relative to YPy1: slightly higher than that of YPy1
Cas-1 in THP-1 cells
  intracellular fluorescence intensity, ATP stimulation: increased with prolonged stimulation time
  intracellular fluorescence intensity, Nig stimulation: increased with prolonged stimulation time
caspase-3
  fluorescence response to caspase-3: almost no response

## –YVADG– [YPy1, caspase-1-responsive FRET probe with recognition peptide –YVADG–; RhoB donor, hNR quencher]
Cas-1 in THP-1 cells
  intracellular fluorescence intensity, ATP stimulation: increased with prolonged stimulation time
  intracellular fluorescence intensity, Nig stimulation: increased with prolonged stimulation time
caspase-3
  fluorescence response to caspase-3: almost no response

Source: article PMC12598616, “Design and optimization of caspase-1-responsive fluorescent probes for pyroptosis imaging and anti-pyroptosis drug screening” (Chemical Science, 2025)
